As a reminder, the solubility (kinetic) is the concentration staying in solution when a stock, usually in DMSO, is diluted into the medium.

Values after ≈ are worked out from the molar mass of the structure shown.

For this data set the following is noted: buffer; pH 7.4; 200.0 µM.
Regarding `CC(C)(C)c1ccc(CCC2OCC(CN3CCOCC3)O2)cc1` (stereo not drawn), the kinetic solubility was 40 µg/mL (≈ 120 µM).
In the case of `CC1=C(C(=O)OCC2CCCCC2)C(c2ccc(O)cc2)NC(=O)N1` (stereo not drawn), the kinetic solubility amounted to 3.4 µg/mL (≈ 9.87 µM).
As to `Cl.OC(c1ccc(Cl)cc1)C(CN1CCOCC1)c1ccccc1` (stereo not drawn), the kinetic solubility was more than 55.2 µg/mL.
With `CN(Cc1nc2ccccc2c(=O)[nH]1)C(=O)c1cc2c(s1)CCCCC2` the figure was 4.8 µg/mL (≈ 13.1 µM).
`Cc1cc(=O)[nH]c2ccc(S(=O)(=O)NCc3ccccc3)cc12` displayed a kinetic solubility of 2.5 µg/mL (≈ 7.61 µM).
In turn, `O=C(Cc1ccc(Cl)c(Cl)c1)N1CCOCC1` had a kinetic solubility of more than 41.1 µg/mL.
Consider `COc1ccc2ccccc2c1-c1csc(N)n1`, for which the kinetic solubility is more than 38.4 µg/mL.
`Cc1ccc(O)c(Nc2nc(-c3ccccc3)nc3ccccc23)c1` returned a solubility (kinetic) of less than 0.2 µg/mL.
Take `CCCc1nc2cc(Cl)c([N+](=O)[O-])cc2o1`: the kinetic solubility stood at 5 µg/mL (≈ 20.8 µM).
Regarding `CN(C)c1ccc(/C=C/c2nc3ccccc3c(=O)[nH]2)cc1`, the solubility (kinetic) is 0.6 µg/mL (≈ 2.06 µM).
Molecule `Cc1cc(Cl)c2ccc3ccccc3c2n1` showed a kinetic solubility of less than 0.5 µg/mL.
In turn, `c1ccc(CN2CCOCCOCCOCCOCC2)cc1` yielded a solubility (kinetic) of 43.2 µg/mL (≈ 140 µM).
`COc1ccccc1NC(=O)C/C(N)=N/OCC(=O)Nc1cccc(Cl)c1` came in with a solubility (kinetic) of more than 58.6 µg/mL.
The figure for `CCOC(=O)c1sc(=NC(=O)c2cccc(C)c2)n(C)c1C` is 0.7 µg/mL (≈ 2.2 µM); for `CC(C)(C)c1ccc(OCC(O)CN2CCCC2)cc1.Cl` (stereo not drawn) it is more than 47.1 µg/mL; for `O=C(c1ccc2ccccc2n1)N1CCN(c2ccccn2)CC1` it is more than 47.8 µg/mL.
`O=C1N[C@@H](Cc2ccccc2)C(=O)N2CCC[C@@H]12` gave a kinetic solubility of more than 36.6 µg/mL.
Molecule `O=c1c2cc(NC(=S)NC3CC3)ccc2nc2n1CCCCC2` showed a solubility (kinetic) of 34.7 µg/mL (≈ 106 µM).
In turn, `COCCCNC(=O)c1ccc(CN2CCc3ccccc3C2)cc1` yielded a solubility (kinetic) of more than 50.8 µg/mL.
Molecule `CC(NC(=O)CS(=O)(=O)c1ccccc1)c1ccccc1` (stereo not drawn) showed a kinetic solubility of more than 45.5 µg/mL.
On to `O=S1(=O)N=C(Nc2ccc(O)cc2)c2ccccc21`, for which the kinetic solubility is 11 µg/mL (≈ 40.1 µM).
The molecule `COc1ccccc1NC(=O)c1cc2c(cc1Cl)N1CCCCCC1=NS2(=O)=O` returned a solubility (kinetic) of 2.1 µg/mL (≈ 4.84 µM). This solubility kinetic is about 5.2-fold lower than that of the molecule before.
Regarding `CC1CCN(C(=O)COC(=O)c2ccc3c(c2)OCCO3)CC1`, the kinetic solubility is more than 47.9 µg/mL.
With `Cc1cccc(NC(=O)CCC(=O)c2cccs2)n1` the figure was more than 41.2 µg/mL; with `CCC(C)c1ccccc1NC(=O)C(C)OC(=O)c1ccco1` (stereo not drawn), more than 47.3 µg/mL.
`C=CCN1C2CCCC1CC(NC(=S)Nc1ccc(Cl)cc1)C2` (stereo not drawn) had a solubility (kinetic) of more than 52.5 µg/mL.
On to `O=C(CN1CCOCC1)NNC(=O)c1ccc([N+](=O)[O-])cc1`, for which the solubility (kinetic) is more than 46.2 µg/mL.
In the case of `O=C(COC(=O)c1ccccc1C(F)(F)F)NC(=O)NCc1ccco1`, the kinetic solubility was 19.5 µg/mL (≈ 52.7 µM).
As to `O=Cc1ccc(OCC(=O)NCC2CCCO2)cc1` (stereo not drawn), the solubility (kinetic) was determined as 36.4 µg/mL (≈ 138 µM). This solubility kinetic lies about 1.9-fold higher than the previous one.
`CN1CCC(N(C)S(=O)(=O)c2ccc(NC(=O)c3ccc(S(=O)(=O)N(C)C)cc3)cc2)CC1` came in with a solubility (kinetic) of more than 74.2 µg/mL.
In turn, `C(=N\N1CCOCC1)/c1ccsc1.O=P(O)(O)O` showed a solubility (kinetic) of more than 44.1 µg/mL.
With `Cc1ccc(S(=O)(=O)NCC(=O)OCCOc2ccc(Br)cc2)cc1` the figure was 3.8 µg/mL (≈ 8.87 µM).
As for `Cc1cccc(C)c1NC(=O)c1cnccn1`, the kinetic solubility is 24.8 µg/mL (≈ 109 µM).
As to `O=C(CCN=C1NS(=O)(=O)c2ccccc21)Nc1ccc(F)cc1Cl`, the kinetic solubility was more than 57.3 µg/mL.
Molecule `C=CCNC(=O)COC(=O)c1c2c(nc3ccccc13)CCC2` displayed a solubility (kinetic) of 40.9 µg/mL (≈ 132 µM).
Molecule `CCN(CC)CCCN=C(N)N.O=S(=O)(O)O` returned a solubility (kinetic) of 24 µg/mL.
The molecule `COc1ccc(NC(=O)Nc2cccc(Cl)c2Cl)c(OC)n1` registered a kinetic solubility of less than 0.2 µg/mL.
`CCOC(=O)N1CCN(S(=O)(=O)c2ccc3c4c(cccc24)C(=O)N3)CC1` gave a kinetic solubility of 3.6 µg/mL (≈ 9.24 µM).
Take `COc1cc(S(=O)(=O)Nc2ccc3c(c2)C(=O)N(C)C3=O)ccc1NC(C)=O`: the solubility (kinetic) was more than 60.5 µg/mL.
With `CS(=O)(=O)c1ccc(Cl)c(NC(=O)COC(=O)c2ccc(S(=O)(=O)N3CCCC3)cc2)c1` the figure was 10.5 µg/mL (≈ 21 µM); with `CC1(c2cccc(Br)c2)NC(=O)N(CC(=O)c2ccc3c(c2)OCCO3)C1=O` (stereo not drawn), 12.5 µg/mL (≈ 28.1 µM); with `Cc1ccccc1NC(=O)CCOc1ccccc1`, more than 38.3 µg/mL.
The figure for `O=C(Oc1ccccc1)N1CCN(C(=O)c2ccco2)CC1` is more than 45 µg/mL.
`COc1ccc(Cl)cc1NC(=O)COC(C)=O`: the solubility (kinetic) was more than 38.7 µg/mL.
For `Nc1nccnc1C(=O)OCC(=O)NNC(=O)c1ccccc1`, the kinetic solubility was more than 47.3 µg/mL.
In the case of `COc1ccc(NS(=O)(=O)c2ccc(C(=O)N3CCN(c4ccc(F)cc4)CC3)cc2)cc1`, the kinetic solubility was found to be 12.1 µg/mL (≈ 25.8 µM).
On to `Cc1ccc(NCC(=O)Nc2ccc(Br)cc2)cc1C`, for which the kinetic solubility stood at 3.7 µg/mL (≈ 11.1 µM).
The molecule `CC(C)(C)CC(C)(C)NC(=O)/C=C/C(=O)O` had a solubility (kinetic) of 29.1 µg/mL (≈ 128 µM).
In turn, `C/C(=N\Nc1nc(C)cc(C)n1)c1ccc(N2CCOCC2)cc1` showed a solubility (kinetic) of more than 48.8 µg/mL.
The figure for `Cc1ccc2[nH]c(C(=O)N3CCN(C=O)CC3)cc2c1` is more than 40.7 µg/mL.
The figure for `CCc1ccc(C2NC(=O)c3ccccc3O2)cc1` (stereo not drawn) is 2.8 µg/mL (≈ 11.1 µM).
With `CCc1ccccc1NC(=S)N(CCOC)C(C)c1ccco1` (stereo not drawn) the figure was 35.1 µg/mL (≈ 106 µM).
`CCOc1ccc(N2C(=O)C3C4C=CC([C@H]5CC45)[C@@H]3C2=O)cc1` (stereo partly drawn): the kinetic solubility came to 8.5 µg/mL (≈ 27.5 µM).
The molecule `Cc1c(OCC(F)(F)F)ccnc1CS(=O)c1nc2ccccc2[nH]1` (stereo not drawn) yielded a kinetic solubility of more than 55.4 µg/mL.
With `Cc1[nH]c2ccc(C(=O)NCCCN3CCOCC3)cc2c1C` the figure was more than 47.3 µg/mL; with `O=C(CCSc1nc2ccccc2o1)Nc1ccccc1`, 4.2 µg/mL (≈ 14.1 µM); with `O=S(=O)(O)c1nc2ccccc2[nH]1`, more than 29.7 µg/mL.
Turning to `CCC1(C)Cc2ccccc2-c2nc[nH]c(=O)c21` (stereo not drawn), the kinetic solubility was 2.8 µg/mL (≈ 11.7 µM).
On to `CN(C)CCCNc1nc(-c2ccccc2)c2c(c1C#N)CC(C)(C)OC2`, for which the solubility (kinetic) amounted to 47.3 µg/mL (≈ 130 µM). This solubility kinetic is about 17-fold higher than that of the molecule before.
With `COc1ccc(N2CCN(CC(=O)NC(C)c3ccccc3)CC2)cc1` (stereo not drawn) the figure was 45.1 µg/mL (≈ 128 µM).
For `COC(=O)CC1C(=O)NCCN1C(=O)c1c(F)cccc1F` (stereo not drawn), the kinetic solubility was more than 46.8 µg/mL.
With `O=C(Nc1nc(-c2ccccc2)cs1)c1ccccc1F` the figure was 0.4 µg/mL (≈ 1.34 µM); with `O/C(=C\c1nc2ccccc2[nH]1)c1cccs1`, 28.3 µg/mL (≈ 117 µM); with `CN(C)CCCn1c(N)c(C#N)c2nc3ccccc3nc21`, more than 44.2 µg/mL.
For `O=C(Nc1ccc2c(c1)OCCO2)c1cccnc1Oc1ccccc1`, the kinetic solubility was 4 µg/mL (≈ 11.5 µM).
With `CC(C)(CO)Nc1nc(Cl)nc(NC2CCCCC2)n1` the figure was 36.5 µg/mL (≈ 122 µM); with `CC1CC(C)CN(C(=O)CCn2c(=O)oc3ccccc32)C1` (stereo not drawn), more than 45.4 µg/mL.
In the case of `O=C(CSc1nc2ccccc2o1)N1CCOCC1`, the solubility (kinetic) was more than 41.7 µg/mL.
With `O=C(O)CCN1C(=O)c2ccc(NC(=O)c3ccco3)cc2C1=O` the figure was more than 49.2 µg/mL.
Molecule `COCc1nc2oc3ccc(C)cc3c(=O)c2cc1C(=O)OC` displayed a kinetic solubility of 3.9 µg/mL (≈ 12.4 µM).
The figure for `Cc1ccc2ncnc(Nc3ccccc3)c2c1` is 11.6 µg/mL (≈ 49.3 µM); for `Cc1ccnc(N2CCC(C(=O)Nc3ccc4c(c3)OCCO4)CC2)n1` it is 13.6 µg/mL (≈ 38.4 µM).
Molecule `Cc1ccc(S(=O)(=O)N2CCN(C(=O)CCC(=O)Nc3ccc(F)cc3F)CC2)cc1` came in with a solubility (kinetic) of more than 67.7 µg/mL.
Molecule `Cc1nc2ccc(OC(=O)c3ccccc3)cc2s1` returned a solubility (kinetic) of 2.9 µg/mL (≈ 10.8 µM).
The figure for `S=C(c1c[nH]c2ccccc12)N1CCCC1` is more than 34.5 µg/mL; for `CC(Sc1cccc[n+]1[O-])C(=O)Nc1cc(Cl)c(Cl)cc1Cl` (stereo not drawn) it is 53.5 µg/mL (≈ 142 µM).
In turn, `COc1ccc(OCC(=O)N2c3ccccc3CC2C)c([N+](=O)[O-])c1` (stereo not drawn) registered a kinetic solubility of 17.3 µg/mL (≈ 50.5 µM). Compared with the last molecule, the solubility kinetic is about 3.1-fold lower.
As for `Cc1c(C)c2ccc(OCC(=O)Nc3ccccn3)cc2oc1=O`, the kinetic solubility is less than 0.3 µg/mL.
Turning to `Cl.Cn1sccc1=O`, the kinetic solubility was 18.4 µg/mL.
On to `Nc1c(C(=O)OCC(=O)NCc2ccccc2)[nH]c(=O)[nH]c1=O`, for which the kinetic solubility came to 28.9 µg/mL (≈ 90.8 µM).
`Nc1cccc(-c2nc3ncccc3o2)c1` gave a solubility (kinetic) of more than 31.7 µg/mL.
Regarding `CSc1ccccc1NC(=O)C1CCCN(S(C)(=O)=O)C1` (stereo not drawn), the kinetic solubility is more than 49.3 µg/mL.
As to `C=CCC1(N(C(C)=O)c2ccccc2C)CCCCC1`, the kinetic solubility turned out to be 6.7 µg/mL (≈ 24.7 µM).
As for `Cn1cccc1/C=N\NC(=O)C1COc2ccccc2O1` (stereo not drawn), the solubility (kinetic) was more than 42.8 µg/mL.
The figure for `COc1ccc(NC(=O)CS(=O)c2cccc(Cl)c2)cc1` (stereo not drawn) is more than 48.6 µg/mL; for `Cc1cc(C(=O)CSc2nc(N)cc(N)n2)c(C)n1CC1CCCO1` (stereo not drawn) it is more than 54.2 µg/mL.
`COc1cc(C(=O)NC(=S)N2CCCCCC2)cc(OC)c1OC` had a kinetic solubility of 15.8 µg/mL (≈ 44.8 µM).
Turning to `CCN1C(=O)CSC1=Nc1ccc(C(=O)O)cc1`, the solubility (kinetic) came to 39 µg/mL (≈ 148 µM). Compared with the last molecule, the solubility kinetic is about 2.5-fold higher.
In turn, `COc1cccc(NC(=O)NC2CCCCCCC2)c1` registered a kinetic solubility of 5.2 µg/mL (≈ 18.8 µM).
The figure for `Clc1cc(Cl)cc(NC2=NCCS2)c1` is 8.8 µg/mL (≈ 35.6 µM); for `COc1ccc(OC)c(NC(=O)COC(=O)[C@H](Cc2ccccc2)NC(=O)c2ccco2)c1` it is 5.7 µg/mL (≈ 12.6 µM); for `COc1cc(C)c(S(=O)(=O)NOCc2ccc([N+](=O)[O-])cc2)c(C)c1C` it is less than 0.4 µg/mL.
With `O=C(CC1Sc2ccccc2NC1=O)NCc1ccc(Cl)cc1` (stereo not drawn) the figure was less than 0.4 µg/mL.
With `Cc1ccc(CNC(=O)Nc2ccc(F)cc2)n1C`, the kinetic solubility was more than 39.2 µg/mL.
In turn, `COc1ccc(CCC(=O)Nc2ccc3c(c2)OCO3)cc1OC` yielded a kinetic solubility of 35.5 µg/mL (≈ 108 µM).
With `Cc1nc(SCC(=O)N2CCOCC2)c2c(C)c(C)sc2n1` the figure was 49.1 µg/mL (≈ 145 µM).
With `COC(=O)c1sccc1NC(=O)Nc1cc(OC)ccc1OC` the figure was 10.3 µg/mL (≈ 30.6 µM); with `NC(=O)COC(=O)c1ccc(S(=O)(=O)NCc2ccco2)cc1`, more than 50.8 µg/mL.
`CC(C(=O)Nc1ccc(C#N)cc1)N1CCN(C(=O)C2CC2)CC1` (stereo not drawn) gave a solubility (kinetic) of more than 49 µg/mL.
In turn, `O=C(Cc1ccc(O)cc1)NCCNC(=S)NCc1ccccc1` came in with a kinetic solubility of 50.3 µg/mL (≈ 146 µM).
Consider `Cc1ccc(NC(=O)Cn2cnc([N+](=O)[O-])c2)cc1C`, for which the solubility (kinetic) is more than 41.1 µg/mL.
Take `Cc1cc(=O)oc(C)c1C(=O)Nc1cccnc1Cl`: the solubility (kinetic) is more than 41.8 µg/mL.
With `Cn1c(NNC(=O)c2c(F)cccc2F)cc(=O)n(C)c1=O`, the kinetic solubility is more than 46.5 µg/mL.
